SMILES strings stand for the structures. Where two headings read alike, the source gives them in different places.

A word on the AUC: it is the area under the concentration-time curve, a measure of exposure. As a reminder, the MRT is the average time that molecules of a dose stay in the body. By bioavailability is commonly meant the share of a dose that reaches the circulation, judged against a reference dose that is usually intravenous.

Data set [1] has as its target CDK6/D3 (Homo sapiens (Human), UniProt Q00534). The data set is described as follows: CDKs inhibition assay (ADP-Glo Kinase Assay), CDK6. To be noted: for Ratio IC50 (CDK6)/IC50 (CDK1): smaller value = better selectivity for CDK6. Background: In ADP-Glo the light output rises with the ADP produced.
Method: (2) Preparation of Test Compound:
(§4) a. Test compounds at a certain concentration were taken respectively, and diluted with kinase reaction buffer I to compound solutions with a final concentration of 50 μM;
(§5) 4. Preparation of reaction substrate and ATP mixed solution:
a. Preparation of ATP solution:
(§6) 200 μl of 0.1 mM ATP solution: 2 μl of 10 mM ATP was added into 198 μl kinase reaction buffer I;
(§7) 300 μl of 50 μl M ATP solution: 150 μl kinase reaction buffer I was added into 150 μl of above-mentioned 0.1 mM ATP solution;
(§8) b. Preparation of 300 μl reaction substrate solution:
(§9) 150 μl of 1 μg/μl reaction substrate stock solution was added into 150 μl kinase reaction buffer I and uniformly mixed;
(§10) c. Above-mentioned a/b solutions were mixed to obtain mixed solutions respectively.
(§11) 2 μl compound solution at each concentration was added into a 384-well plate respectively, and centrifuged for 3 min;
(§12) 4 μl kinase solution was added into each well, centrifuged at 5000 rpm for 10 min at 18° C., and shaked well for 10 min on a shaker;
(§13) 4 μl substrate and ATP mixed solution were added into each well, centrifuged at 5000 rpm for 10 min at 18° C., and shaked well for 90 min on a shaker at 37° C.;
(§14) The 384 well plate was removed and allow to achieve room temperature;
(§15) 10 μl ADP-Glo reagent was added into each well, centrifuged at 5000 rpm for 10 min at 18° C., and shaked well for 40 min on a shaker at 25° C. to terminate the reaction;
(§16) 20 μl kinase assay reagent was added into each well, centrifuged at 5000 rpm for 10 min at 18° C., and shaked well for 30 min on a shaker at 25° C.;
(§17) Fluorescence values were read by M1000pro microplate reader.
(§18) The inhibition rate of each compound at each concentration point was calculated according to the following equation, and IC50 value was calculated by curve fitting using GraphPad Prism 5 software.
Data set [2] has as its system human breast cancer cell line MDB-MA-231. The data set is described as follows: Proliferation inhibition assay on human breast cancer cell line MDA-MB-231 (DAPI staining, In Cell Analyzer). As to conditions: MDA-MB-231, read-out: IC50 for inhibition of proliferation of human breast cancer cell line MDB-MA-231, 72 h incubation. Format: cell-based. As to the method: Experimental Preparation:
1. MDA-MB-231 cells were seeded at 4000 cells/100 ul/well to a 96-well plate with black transparent bottom, and cultured overnight at 37° C.;
3. Fixation: the cell plate was taken, medium was removed, and 50 μl of 4% paraformaldehyde was added to each well and fixed 10 min;
4.50 μl 0.1 M glycine was added to neutralize for 10 min;
6. Permeabilization: 50 ul of 0.2% TritonX-100 was added to each well and permeabilized at room temperature for 10 min;
8.5 mg/mL DAPI stock solution was diluted at 1:5000 (final concentration 1 μg/ml) and the cells were stained at room temperature for 20 min.
10. The plate was scanned and analyzed on In cell analyser.

For data set [3], the target named is CDK4/D3 (Homo sapiens (Human), UniProt P11802). Description: CDKs inhibition assay (ADP-Glo Kinase Assay), CDK4. As to conditions: for selectivity for CDK4/6 (over CDK1) compared with the control compound LY2835219: in words; for Ratio IC50 (CDK4)/IC50 (CDK1): smaller value = better selectivity for CDK4.
Method: (2) Preparation of Test Compound:
as §4, §5
a. Preparation of ATP solution:
as §6, §7, §8, §9, §10, §11, §12, §13, §14, §15, §16, §17, §18
Data set [4] concerns the target CDK1/A2 (Homo sapiens (Human), UniProt P06493). The data set is described as follows: CDKs inhibition assay (ADP-Glo Kinase Assay), CDK1. To be noted: read-out: IC50 (nM) CDK1/A2.
Method: (2) Preparation of Test Compound:
as §4, §5
a. Preparation of ATP solution:
as §6, §7, §8, §9, §10, §11, §12, §13, §14, §15, §16, §17, §18
Data set [5] can be described thus: Pharmacokinetic study in rats (intragastric). The class given is in vivo, SD rats. As to conditions: 5 mg/kg. As to the method:
(§1) 2.3 Preparation of Test Compounds
(§2) 2.4 Test Drug Administration
(§3) 3. Experimental Operation
Whole blood was anticoagulated with EDTA-K2, centrifuged to remove the supernatant, and cryopreserved at −20° C. until being analyzed.

The nature of data set [6]: Pharmacokinetic study in mice (intragastric and intravenous). As to conditions: for AUC: read-out: Area under the curve AUC; for MRT: read-out: Retention time MRT. Format: in vivo, ICR mice. As to the method: as §1
An appropriate amount of sample was weighed, then 0.1% hydroxyethyl cellulose/0.5% Tween 80 was added to final volume to obtain a solution of 0.5 mg/ml for intragastrical administration.
as §2
Male ICR mice, 3 for each test compound, were intragastrically administered test drugs at a dose of 5 mg/kg and a drug volume of 10 ml/kg after an overnight fast.
Male ICR mice, 3 for each test compound, were administered by intravenous injection test drugs at a dose of 2 mg/kg and a drug volume of 10 ml/kg after an overnight fast.
as §3
The carotid artery of the animal was catheterized and blood sample was removed prior to dosing and at 0.25, 0.5, 1, 2, 4, 8, 12 and 24 hours after dosing for intragastrical administration group. Whole blood was anticoagulated with EDTA-K2, centrifuged to remove the supernatant, and cryopreserved at −20° C. until being analyzed. The carotid artery of the animal was catheterized and blood sample was removed prior to dosing and at 0.083, 0.25, 0.5, 1, 2, 4, 8, 12 and 24 hours after dosing for i.v. administration group. Plasma sample treatment was the same as intragastrical administration group.

[7] abbreviates: male, ICR, mouse, plasma, iv, i.v. (2 mg/kg).
[8] abbreviates: male, ICR, mouse, plasma, po, i.g. (5 mg/kg).

For the compound `Cc1nc(Nc2ncc(F)c(-c3cc(F)c4nc5n(c4c3)C(C)(C)CC5)n2)ccc1CC1CCNCC1` [Example 30, 5-Fluoro-4-(5-fluoro-1,1-dimethyl-2,3-dihydro-1H-benzo[d]pyrrolo[1,2-a]imidazol-7-yl)-N-(6-methyl-5-(piperidine-4-ylmethyl)pyridin-2-yl)pyrimidin-2-amine], in data set [1], the IC50 was 12.2 nM and the “Ratio IC50 (CDK6)/IC50 (CDK1)” value worked out at 0.016. In addition, the IC50 in data set [2] worked out at 300 nM. In data set [3], the IC50 amounted to 1.2 nM, the “selectivity for CDK4/6 (over CDK1) compared with the control compound LY2835219” value (“selectivity for CDK4/6 (over CDK1)” for short) is “better selectivity for CDK4/6 than the control compound” and the “Ratio IC50 (CDK4)/IC50 (CDK1)” value was determined as 0.002. Further, in data set [4], the IC50 was found to be 744 nM.
With `CN1CCN(c2ccc(Nc3ncc(F)c(-c4cc(F)c5nc6n(c5c4)C(C)(C)CC6)n3)nc2)CC1` [Example 43, 5-Fluoro-4-(5-fluoro-1,1-dimethyl-2,3-dihydro-1H-benzo[d]pyrrolo[1,2-a]imidazol-7-yl)-N-(5-(4-methylpiperazin-1-yl)pyridin-2-yl)pyrimidin-2-amine], in data set [1], the IC50 came out at 0.3 nM and the “Ratio IC50 (CDK6)/IC50 (CDK1)” value was 0.0004. The IC50 in data set [2] was 58 nM. Further, in data set [3], the IC50 was found to be 13 nM, the “selectivity for CDK4/6 (over CDK1)” value was “better selectivity for CDK4/6 than the control compound” and the “Ratio IC50 (CDK4)/IC50 (CDK1)” value is reported as 0.018. Moreover, the IC50 in data set [4] came to 732 nM.
On to `CC1CN(c2ccc(Nc3ncc(F)c(-c4cc(F)c5nc6n(c5c4)C(C)(C)CC6)n3)nc2)CC(C)N1` (centres unmarked) [Example 74, N-(5-(3,5-Dimethylpiperazin-1-yl)pyridin-2-yl)-5-fluoro-4-(5-fluoro-1,1-dimethyl-2,3-dihydro-1H-benzo[d]pyrrolo[1,2-a]imidazol-7-yl)pyrimidin-2-amine], for which, in data set [1], the IC50 turned out to be 0.6 nM and the “Ratio IC50 (CDK6)/IC50 (CDK1)” value is on record as 0.006. Moreover, the IC50 in data set [2] turned out to be 174 nM. For the same compound, in data set [3], the IC50 turned out to be 0.28 nM, the “selectivity for CDK4/6 (over CDK1)” value is “better selectivity for CDK4/6 than the control compound” and the “Ratio IC50 (CDK4)/IC50 (CDK1)” value was found to be 0.003. Besides, in data set [4], the IC50 came to 94.8 nM.
As for `CCN1CCN(Cc2ccc(Nc3ncc(F)c(-c4cc(F)c5nc(C)n(C(C)C)c5c4)n3)nc2)CC1` [LY2835219], in data set [5], the “Area under the curve AUC” value is 3275 ± 731 ng·h/mL. For the same compound, the “Apparent volume of distribution Vz/F” value in data set [6] (i.v. (2 mg/kg)) stood at 7.21 ± 1.08 L/kg. In data set [6] (setting [7]), the AUC came out at 674 ± 82.1 ng·h/mL and the MRT was determined as 1.64 ± 0.17 h. For the same compound, the bioavailability in data set [6] (male, ICR, mouse, plasma, oral, i.g. (5 mg/kg) vs i.v. (2 mg/kg), read-out: Bioavailability F) came out at 45.1%. The Vd/F in data set [6] (male, ICR, mouse, plasma, po, i.g. (5 mg/kg), read-out: Apparent volume of distribution Vz/F) turned out to be 16.1 ± 0.963 L/kg. In addition, in data set [6] (setting [8]), the AUC was 756 ± 34 ng·h/mL and the MRT was determined as 3.08 ± 0.02 h.

The record behind these values is patent US10696678B2, “Kinase inhibitor, and preparing method and pharmaceutical use thereof” (GAN & LEE PHARMACEUTICALS, priority 2015, dated 2020).
